The values below come from article PMC12654597, “Dawson- and Lindqvist-Type Hybrid Polyoxometalates: Synthesis, Characterization and Ca^2+-ATPase Inhibition Potential” (Molecules, 2025).

Where two headings read alike, the source gives them in different places.

One experiment deals with Ca^2+-ATPase. Particulars: literature values for known P-type ATPase inhibitors; cited from earlier work.
For experiment [1], the target named is T1, sarcoplasmic reticulum (SR) Ca^2+-ATPase (Oryctolagus cuniculus, UniProt P04191).
T1 construct: The experiments were performed with isolated sarcoplasmic reticulum vesicles (SRVs); from tissue; host or cells: rabbit skeletal muscle sarcoplasmic reticulum vesicles
The conditions noted are these: cited from earlier work; for IC50: same experimental model, method and conditions.

For experiment [2], the target named is T1, sarcoplasmic reticulum (SR) Ca^2+-ATPase. Nature of the experiment: Sarcoplasmic reticulum Ca2+-ATPase activity, coupled enzyme pyruvate kinase/lactate dehydrogenase assay. The class given is biochemical, rabbit. The conditions noted are these: for IC50: SR vesicles from rabbit skeletal muscle, pH 7.0, 25 °C, uncoupled activity (A23187), triplicate. The text has this:
In order to evaluate the inhibition potential for each of the POMs compounds regarding the Ca^2+-ATPase activity, increasing concentrations of each POM and a control without the presence of the inhibitor were used in order to determine the IC50 values. For each of these assays, an absorbance versus time kinetic is obtained. In the absence of the POM, the control assay was obtained—that is, a kinetic with a higher slope, while by increasing the concentrations of the POMs, lower enzymatic kinetic slopes were found due to the inhibition of the ATPase activity (Figure S1).
Using this method, the effects of the inhibitors can be observed in real time and recorded within 2 to 5 min upon addition of the inhibitor, as described previously. […] For each compound, the equation governing the trendline of this can be solved for 50% in order to determine the IC50 value.
The sarcoplasmic reticulum vesicles (SRV) that contain the Ca^2+-ATPase was previously prepared from rabbit skeletal muscles as described elsewhere. The vesicles were suspended in 0.1 M KCl, 10 mM HEPES (pH 7.0), diluted 1:1 with 2.0 M sucrose, and frozen in liquid nitrogen for storage at −80 °C. […] Stock solutions of the POMs compounds (1 mM) were freshly prepared by dissolving the solid compound in miliQ water and keeping the solution at room temperature before use.
For carrying out the determination of Ca^2+-ATPase activity assays, the following medium was prepared: 25 mM HEPES (pH 7.0), 100 mM KCl, 5 mM MgCl2 and 50 µM CaCl2.
The experiments were performed with isolated sarcoplasmic reticulum vesicles (SRVs) previously diluted to 1 mg/mL with a sucrose concentration of 0.25 M (Figure 11). 0.8 mL of medium described above was added into a quartz cuvette. 0.42 mM phosphoenolpyruvate (PEP), 18 IU lactate dehydrogenase, 7.5 IU 155 pyruvate kinase, and 2.5 mM ATP without (control) or with increasing concentrations of POMs were added to this medium. […] The absorbance of the solution was measured spectrophotometrically at 340 nm, 25 °C, and an auto zero was performed. Subsequently, 0.25 mM NADH was added, allowing the absorbance value to stabilize to about 1.3 O.D. The assay begins after the addition of 10 μg/mL of Ca^2+-ATPase (basal activity) and one minute after ionophore A23187 (calcimycin) 4% (w/w) was added (uncoupled activity), and the kinetics followed for about 2 min in the absence or in the presence of increasing concentrations of POMs, from 0 to 15 μM for compound 1 and from 0 to 80 μM for compound 2. […]
For each experimental condition, the experiments were always performed in triplicate. Therefore, the determination of Ca^2+-ATPase activity without and with the inhibitor was made using a continuous enzymatic method using the measurement of absorbance versus time (Figure S1), as described elsewhere.

T1 sequence (P04191 1-994 isoform P04191-2): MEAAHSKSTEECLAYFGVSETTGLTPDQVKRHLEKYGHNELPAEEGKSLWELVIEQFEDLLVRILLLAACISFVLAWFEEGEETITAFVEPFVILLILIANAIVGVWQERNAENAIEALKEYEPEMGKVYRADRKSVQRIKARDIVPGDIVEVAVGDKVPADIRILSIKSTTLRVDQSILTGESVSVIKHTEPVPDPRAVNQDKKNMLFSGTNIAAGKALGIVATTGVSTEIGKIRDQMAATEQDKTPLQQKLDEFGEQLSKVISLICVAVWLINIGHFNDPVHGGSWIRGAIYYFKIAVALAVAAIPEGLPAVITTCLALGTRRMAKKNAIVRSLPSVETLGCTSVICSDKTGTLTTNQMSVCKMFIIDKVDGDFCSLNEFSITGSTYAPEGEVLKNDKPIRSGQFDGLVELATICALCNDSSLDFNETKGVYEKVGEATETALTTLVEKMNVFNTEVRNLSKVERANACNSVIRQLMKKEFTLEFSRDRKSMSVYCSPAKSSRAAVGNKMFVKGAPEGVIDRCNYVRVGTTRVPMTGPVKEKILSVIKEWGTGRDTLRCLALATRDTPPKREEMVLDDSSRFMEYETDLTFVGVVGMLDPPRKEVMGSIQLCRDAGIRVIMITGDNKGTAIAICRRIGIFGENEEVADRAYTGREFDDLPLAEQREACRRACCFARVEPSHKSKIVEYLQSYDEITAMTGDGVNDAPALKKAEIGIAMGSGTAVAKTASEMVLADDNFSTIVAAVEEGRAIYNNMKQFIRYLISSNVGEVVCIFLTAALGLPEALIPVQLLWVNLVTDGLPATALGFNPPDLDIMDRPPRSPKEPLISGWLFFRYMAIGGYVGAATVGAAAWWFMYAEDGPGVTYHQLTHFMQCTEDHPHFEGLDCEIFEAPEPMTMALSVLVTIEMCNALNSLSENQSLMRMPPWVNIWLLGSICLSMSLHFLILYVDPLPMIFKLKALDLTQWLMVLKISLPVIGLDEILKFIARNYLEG

The IC50 is the concentration needed to halve the response being measured. On to `CC(=O)C1=C(O)[C@@H]2[C@H]3c4c[nH]c5cccc(c45)C[C@H]3C(C)(C)N2C1=O` [CPA, cyclopiazonic acid], for which, at Ca^2+-ATPase, the IC50 is 0.1 to 0.2 µM. `C/C=C(/C)C(=O)O[C@H]1C(C)=C2[C@H]([C@@H]1OC(=O)CCCCCCC)[C@@](C)(OC(C)=O)C[C@H](OC(=O)CCC)[C@@]1(O)[C@H]2OC(=O)[C@@]1(C)O` [TG, thapsigargin]: on Ca^2+-ATPase, the IC50 was 0.001 to 0.029 µM.

As to `[O]=[V]([OH])([OH])[O][V]1(=[O])[O][V]2(=[O])[O][V](=[O])([O][V](=[O])([OH])[OH])[O][V](=[O])([O]2)[O][V]2(=[O])[O][V](=[O])([O][V](=[O])([OH])[OH])[O][V](=[O])([O]1)[O]2` (stereo not shown) [V10, decavanadate], in experiment [1], the IC50 was 15 µM. Regarding `Cc1ccc(-c2cc(C(F)(F)F)nn2-c2ccc(S(N)(=O)=O)cc2)cc1` [celecoxib], on Ca^2+-ATPase, the IC50 was 35 µM. Take (C2H8N1)6[V2Mo18O62].3H2O [compound 1]: the half-maximal inhibitory concentration (IC50) in experiment [2] is 3.4 µM. Also, in experiment [2] (ratio of IC50 values, compound 1 vs compound 2), the “fold inhibition potential regarding ATPase activity relative to compound 2” value is on record as “about 13 fold”.

In experiment [2], (C4H16N3)4[V2W4O19]3.12H2O [compound 2] had a concentration for half-maximal inhibition (IC50) of 45.1 µM. Also, the “Ca^2+-ATPase inhibition potency relative to Anderson type TeW6” value in experiment [2] (comparison of IC50 values, compound 2 vs TeW6) was “four times more potent”.

metformin-decavanadate [Metf-V10]: the “IC50 ATPase inhibition value relative to V10 alone” value in experiment [1] (metformin-decavanadate vs V10) is listed as “six times higher”. In addition, in experiment [1], the IC50 was 87.4 µM.
